From the supplement of paper PMC10307832

Tests used:
Assay in all cases: relative viability (nuclei count vs DMSO), 5 days (fraction); higher = more cells survive
Veliparib + Palbociclib = compound: C[C@]1(c2nc3c(C(N)=O)cccc3[nH]2)CCCN1 [Veliparib] + CC(=O)c1c(C)c2cnc(Nc3ccc(N4CCNCC4)cn3)nc2n(C2CCCC2)c1=O [Palbociclib] (partner 0.5 µM)
How it was run: (§1)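 Relative viability is defined as nuclei in treated wells over nuclei in vehicle wells. Duplicate plates were run and medians reported. Lung cancer cell lines in 1536-well plates were dosed by pin tool one day after seeding, with one drug or with a fixed anchor-drug dose plus five library-drug doses (not always all listed) in √10 steps, and nuclei were counted after 5 days.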

Veliparib + AZD7762 = compound: C[C@]1(c2nc3c(C(N)=O)cccc3[nH]2)CCCN1 [Veliparib] + NC(=O)Nc1cc(-c2cccc(F)c2)sc1C(=O)N[C@H]1CCCNC1 [AZD7762] (partner 0.2 µM)
How it was run: as §1

[1] = compound: COC1=CC=C(C=C1)CN2C=CC3=C2C=C(C=C3)C(=O)NO + Cc1nc(NC(=O)N2CCC[C@H]2C(N)=O)sc1-c1ccnc(C(C)(C)C(F)(F)F)c1 [Alpelisib] (partner 2 µM)
How it was run: as §1

Veliparib + Bortezomib = compound: C[C@]1(c2nc3c(C(N)=O)cccc3[nH]2)CCCN1 [Veliparib] + CC(C)C[C@H](NC(=O)[C@H](Cc1ccccc1)NC(=O)c1cnccn1)B(O)O [Bortezomib] (partner 0.002 µM)
How it was run: as §1

| Cell Line | relative viability (Veliparib + Palbociclib; first compound 0.02 µM) | relative viability (Veliparib + Palbociclib; first compound 0.06325 µM) | relative viability (Veliparib + Palbociclib; first compound 0.2 µM) | relative viability (Veliparib + Palbociclib; first compound 0.6325 µM) | relative viability (Veliparib + Palbociclib; first compound 2 µM) | relative viability (Veliparib + AZD7762; first compound 0.02 µM) | relative viability (Veliparib + AZD7762; first compound 0.06325 µM) | relative viability (Veliparib + AZD7762; first compound 0.2 µM) | relative viability (Veliparib + AZD7762; first compound 0.6325 µM) | relative viability (Veliparib + AZD7762; first compound 2 µM) | relative viability ([1]; first compound 0.08 µM) | relative viability ([1]; first compound 0.253 µM) | relative viability ([1]; first compound 0.8 µM) | relative viability ([1]; first compound 2.53 µM) | relative viability ([1]; first compound 8 µM) | relative viability (Veliparib + Bortezomib; first compound 0.02 µM) | relative viability (Veliparib + Bortezomib; first compound 0.06325 µM) | relative viability (Veliparib + Bortezomib; first compound 0.2 µM) | relative viability (Veliparib + Bortezomib; first compound 0.6325 µM) | relative viability (Veliparib + Bortezomib; first compound 2 µM) |
| --- | --- | --- | --- | --- | --- | --- | --- | --- | --- | --- | --- | --- | --- | --- | --- | --- | --- | --- | --- | --- |
| NCI-H2342 | 0.482 | 0.581 | 0.503 | 0.522 | 0.491 | 0.392 | 0.543 | 0.417 | 0.471 | 0.405 | – | – | – | – | – | – | – | – | – | – |
| HOP-62 | 0.384 | 0.333 | 0.483 | 0.343 | 0.368 | 0.567 | 0.65 | 0.621 | 0.463 | 0.598 | 0.71 | 0.996 | 0.985 | 0.932 | 0.947 | 0.729 | 1.16 | 0.811 | 0.733 | 0.951 |
| BEN | 0.466 | 0.491 | 0.479 | 0.5 | 0.465 | 0.599 | 0.644 | 0.664 | 0.793 | 0.625 | 0.972 | 1.07 | 1.06 | 0.967 | 0.929 | 0.676 | 0.739 | 0.827 | 0.87 | 0.78 |
| NCI-H647 | 0.392 | 0.325 | 0.425 | 0.423 | 0.469 | 0.53 | 0.415 | 0.429 | 0.552 | 0.394 | 0.981 | 1.23 | 1.16 | 1.21 | 0.954 | 1.23 | 1 | 0.847 | 0.985 | 0.965 |
| NCI-H2085 | 0.454 | 0.476 | 0.477 | 0.471 | 0.479 | 0.813 | 0.984 | 1.05 | 1.03 | 0.911 | 0.968 | 0.981 | 1.1 | 0.969 | 1.02 | 0.655 | 0.915 | 0.898 | 1.07 | 0.862 |
| NCI-H2347 | 0.44 | 0.411 | 0.404 | 0.444 | 0.477 | 0.77 | 0.787 | 0.788 | 0.769 | 0.624 | 0.763 | 1.14 | 1.03 | 1.18 | 1.01 | 1.13 | 0.687 | 1.09 | 1.21 | 0.959 |
| NCI-H2228 | 0.553 | 0.897 | 0.645 | 0.774 | 0.759 | – | – | – | – | – | 0.764 | 0.659 | 0.773 | 0.893 | 0.741 | 0.924 | 0.844 | 1 | 0.843 | 0.999 |
| NCI-H2009 | 0.145 | 0.211 | 0.235 | 0.205 | 0.2 | – | – | – | – | – | 1.15 | 1.17 | 1.05 | 1.24 | 1.09 | 0.299 | 0.869 | 0.808 | 0.919 | 1.15 |
| IA-LM | – | – | – | – | – | – | – | – | – | – | 0.609 | 0.743 | 0.732 | 0.852 | 0.776 | 0.831 | 0.748 | 0.794 | 0.83 | 0.813 |
| NCI-H358 | 0.117 | 0.136 | 0.153 | 0.137 | 0.119 | – | 0.487 | 0.671 | 0.552 | 0.676 | – | 0.941 | 0.985 | 0.919 | 0.829 | – | – | – | – | – |
| SK-LU-1 | 0.426 | 0.379 | 0.394 | 0.362 | 0.378 | – | – | – | – | – | 1.01 | 1.04 | 1.11 | 1.11 | 0.81 | 1.51 | 1.03 | 0.984 | 1.36 | 0.589 |
| LCLC-97TM1 | 0.219 | 0.194 | 0.233 | 0.23 | 0.249 | 0.164 | 0.264 | 0.191 | 0.274 | 0.31 | – | 0.242 | 0.242 | 0.255 | 0.233 | – | 0.269 | 0.554 | 1.12 | 0.834 |
| NCI-H322M | – | 0.491 | 0.48 | 0.514 | 0.49 | – | 0.629 | 0.573 | 0.744 | 0.611 | – | 0.726 | 0.769 | 0.845 | 0.656 | 1.25 | 1.15 | 1.26 | 1.07 | 1.17 |
| EMC-BAC-2 | 0.527 | 0.487 | 0.512 | 0.486 | 0.544 | 1.15 | 1.02 | 1.12 | 1.09 | 1.17 | 0.633 | 0.749 | 0.799 | 0.77 | 0.71 | 1.11 | 1.03 | 1.07 | 1.05 | 1.09 |
| NCI-H1355 | 0.305 | 0.396 | 0.375 | 0.417 | 0.402 | 0.733 | 0.685 | 0.726 | 0.684 | 0.739 | 0.793 | 0.892 | 0.905 | 0.883 | 0.901 | – | 0.707 | 1.23 | 1.09 | 1.15 |
| Calu-6 | – | – | – | – | – | – | – | – | – | – | 0.859 | 0.881 | 0.897 | 1.02 | 0.815 | 1.1 | 0.966 | 0.926 | 1.02 | 0.859 |
| NCI-H661 | 0.382 | 0.41 | 0.4 | 0.371 | 0.384 | – | – | – | – | – | – | 0.464 | 0.595 | 0.512 | 0.626 | 0.635 | 0.877 | 0.767 | 0.731 | 0.777 |
| NCI-H1975 | 0.533 | 0.544 | 0.513 | 0.543 | 0.535 | 0.765 | 0.639 | 0.737 | 0.736 | 0.61 | 0.699 | 0.711 | 0.644 | 0.592 | 0.547 | 0.394 | 0.465 | 0.429 | 0.412 | 0.424 |
| COR-L23 | 0.27 | 0.237 | 0.252 | 0.25 | 0.27 | – | – | – | – | – | 0.493 | 0.897 | 0.793 | 0.892 | 0.551 | 0.92 | 0.991 | 1.01 | 0.966 | 0.967 |
